System: NCI-H929 complex spheroids, viability % test/control
Assay: Anticancer human tumor NCI-H929 cell line growth inhibition [RAS];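 also: compound exposure lasted seven days before viability was read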;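 as to viability, T/C: 100% = DMSO vehicle control viability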
Conditions: for viability, T/C: stronger effect = lower value
How it was run: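 Tumour cells grown as complex spheroids with HUVEC endothelial cells and mesenchymal stem cells, treated with RAS pathway inhibitor combinations. Each agent spans half-log steps from near clinical Cmax, or 10 microM where Cmax is unknown.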

## C=CC(=O)Nc1cc(Nc2nccc(-c3cn(C)c4ccccc34)n2)c(OC)cc1N(C)CCN(C)C + CCn1c(-c2cc(N3CCN(C)CC3)cnc2C(C)OC)c2c3cc(ccc31)-c1csc(n1)CC(NC(=O)C1CC1C)C(=O)N1CCCC(N1)C(=O)OCC(C)(C)C2
Curve of first compound, second compound 0.000949 µM
  IC50: > 1000 nM
Curve of first compound, second compound 0.003 µM
  IC50: > 1000 nM
Curve of first compound, second compound 0.00949 µM
  IC50: > 1000 nM
Curve of first compound, second compound 0.03 µM
  IC50: 120 nM
Curve of first compound, second compound 0.0949 µM
  IC50: < 3.16 nM
Curve of first compound, second compound 0.3 µM
  IC50: < 3.16 nM
Second compound 0.000949 µM, first compound 0.00316 µM
  viability, T/C: 97.3%
Second compound 0.000949 µM, first compound 0.01 µM
  viability, T/C: 95%
Second compound 0.000949 µM, first compound 0.0316 µM
  viability, T/C: 103%
Second compound 0.000949 µM, first compound 0.1 µM
  viability, T/C: 94.9%
Second compound 0.000949 µM, first compound 0.316 µM
  viability, T/C: 105%
Second compound 0.000949 µM, first compound 1 µM
  viability, T/C: 103%
Second compound 0.003 µM, first compound 0.00316 µM
  viability, T/C: 87.2%
Second compound 0.003 µM, first compound 0.01 µM
  viability, T/C: 95.3%
Second compound 0.003 µM, first compound 0.0316 µM
  viability, T/C: 98.8%
Second compound 0.003 µM, first compound 0.1 µM
  viability, T/C: 98.4%
Second compound 0.003 µM, first compound 0.316 µM
  viability, T/C: 103%
Second compound 0.003 µM, first compound 1 µM
  viability, T/C: 106%
Second compound 0.00949 µM, first compound 0.00316 µM
  viability, T/C: 108%
Second compound 0.00949 µM, first compound 0.01 µM
  viability, T/C: 112%
Second compound 0.00949 µM, first compound 0.0316 µM
  viability, T/C: 112%
Second compound 0.00949 µM, first compound 0.1 µM
  viability, T/C: 114%
Second compound 0.00949 µM, first compound 0.316 µM
  viability, T/C: 111%
Second compound 0.00949 µM, first compound 1 µM
  viability, T/C: 112%
Second compound 0.03 µM, first compound 0.00316 µM
  viability, T/C: 54.3%
Second compound 0.03 µM, first compound 0.01 µM
  viability, T/C: 46.8%
Second compound 0.03 µM, first compound 0.0316 µM
  viability, T/C: 59.9%
Second compound 0.03 µM, first compound 0.1 µM
  viability, T/C: 49.9%
Second compound 0.03 µM, first compound 0.316 µM
  viability, T/C: 42.2%
Second compound 0.03 µM, first compound 1 µM
  viability, T/C: 9.94%
Second compound 0.0949 µM, first compound 0.00316 µM
  viability, T/C: 7.68%
Second compound 0.0949 µM, first compound 0.01 µM
  viability, T/C: 6.73%
Second compound 0.0949 µM, first compound 0.0316 µM
  viability, T/C: 7.23%
Second compound 0.0949 µM, first compound 0.1 µM
  viability, T/C: 6.05%
Second compound 0.0949 µM, first compound 0.316 µM
  viability, T/C: 5.18%
Second compound 0.0949 µM, first compound 1 µM
  viability, T/C: 1.96%
Second compound 0.3 µM, first compound 0.00316 µM
  viability, T/C: 4.84%
Second compound 0.3 µM, first compound 0.01 µM
  viability, T/C: 4.08%
Second compound 0.3 µM, first compound 0.0316 µM
  viability, T/C: 4.06%
Second compound 0.3 µM, first compound 0.1 µM
  viability, T/C: 3.89%
Second compound 0.3 µM, first compound 0.316 µM
  viability, T/C: 3.59%
Second compound 0.3 µM, first compound 1 µM
  viability, T/C: 1.46%

## C=CC(=O)N1CCN(c2nc(OCC3CCCN3C)nc3c(F)c(-c4nc(N)cc(C)c4C(F)(F)F)c(Cl)cc23)C(C)C1 (stereo unspecified)
Compound 0.00316 µM
  viability, T/C: 102% [middle of 12 runs]
Compound 0.01 µM, compound 0.0316 µM
  viability, T/C: 103%
Compound 0.01 µM, compound 0.1 µM
  viability, T/C: 105%
Compound 0.01 µM, compound 0.316 µM
  viability, T/C: 101%
Compound 0.01 µM, compound 1 µM
  viability, T/C: 106%
Compound 0.01 µM
  viability, T/C: 101% [middle of 13 runs]
Compound 0.0316 µM, compound 0.00316 µM
  viability, T/C: 94.3%
Compound 0.0316 µM, compound 0.01 µM
  viability, T/C: 101%
Compound 0.0316 µM, compound 0.1 µM
  viability, T/C: 101%
Compound 0.0316 µM, compound 0.316 µM
  viability, T/C: 108%
Compound 0.0316 µM, compound 1 µM
  viability, T/C: 109%
Compound 0.0316 µM
  viability, T/C: 103% [middle of 13 runs]
Compound 0.1 µM, compound 0.00316 µM
  viability, T/C: 98.2%
Compound 0.1 µM, compound 0.01 µM
  viability, T/C: 104%
Compound 0.1 µM, compound 0.0316 µM
  viability, T/C: 99.5%
Compound 0.1 µM, compound 0.316 µM
  viability, T/C: 109%
Compound 0.1 µM, compound 1 µM
  viability, T/C: 111%
Compound 0.1 µM
  viability, T/C: 100% [middle of 12 runs]
Compound 0.316 µM, compound 0.00316 µM
  viability, T/C: 102%
Compound 0.316 µM, compound 0.01 µM
  viability, T/C: 105%
Compound 0.316 µM, compound 0.0316 µM
  viability, T/C: 106%
Compound 0.316 µM, compound 0.1 µM
  viability, T/C: 102%
Compound 0.316 µM, compound 1 µM
  viability, T/C: 113%
Compound 0.316 µM
  viability, T/C: 100% [middle of 13 runs]
Compound 1 µM, compound 0.00316 µM
  viability, T/C: 107%
Compound 1 µM, compound 0.01 µM
  viability, T/C: 104%
Compound 1 µM, compound 0.0316 µM
  viability, T/C: 105%
Compound 1 µM, compound 0.1 µM
  viability, T/C: 109%
Compound 1 µM, compound 0.316 µM
  viability, T/C: 110%
Compound 1 µM
  viability, T/C: 104% [middle of 13 runs]
Compound alone, run of 09/09/2024
  IC50: > 1000 nM
Curve of compound
  IC50: > 1000 nM

## CC(C)n1nc(-c2ccc3oc(N)nc3c2)c2c(N)ncnc21 + C=CC(=O)N1CCN(c2nc(OCC3CCCN3C)nc3c(F)c(-c4nc(N)cc(C)c4C(F)(F)F)c(Cl)cc23)C(C)C1
Curve of first compound, second compound 0.00316 µM
  IC50: 63.2 nM
Curve of first compound, second compound 0.01 µM
  IC50: 64.7 nM
Curve of first compound, second compound 0.0316 µM
  IC50: 65 nM
Curve of first compound, second compound 0.1 µM
  IC50: 64.2 nM
Curve of first compound, second compound 0.316 µM
  IC50: 65.5 nM
Curve of first compound, second compound 1 µM
  IC50: 64.4 nM
Second compound 0.00316 µM, first compound 0.000316 µM
  viability, T/C: 102%
Second compound 0.00316 µM, first compound 0.001 µM
  viability, T/C: 104%
Second compound 0.00316 µM, first compound 0.00316 µM
  viability, T/C: 112%
Second compound 0.00316 µM, first compound 0.01 µM
  viability, T/C: 111%
Second compound 0.00316 µM, first compound 0.0316 µM
  viability, T/C: 118%
Second compound 0.00316 µM, first compound 0.1 µM
  viability, T/C: 10.6%
Second compound 0.01 µM, first compound 0.000316 µM
  viability, T/C: 102%
Second compound 0.01 µM, first compound 0.001 µM
  viability, T/C: 107%
Second compound 0.01 µM, first compound 0.00316 µM
  viability, T/C: 109%
Second compound 0.01 µM, first compound 0.01 µM
  viability, T/C: 114%
Second compound 0.01 µM, first compound 0.0316 µM
  viability, T/C: 122%
Second compound 0.01 µM, first compound 0.1 µM
  viability, T/C: 13%
Second compound 0.0316 µM, first compound 0.000316 µM
  viability, T/C: 98.6%
Second compound 0.0316 µM, first compound 0.001 µM
  viability, T/C: 106%
Second compound 0.0316 µM, first compound 0.00316 µM
  viability, T/C: 112%
Second compound 0.0316 µM, first compound 0.01 µM
  viability, T/C: 117%
Second compound 0.0316 µM, first compound 0.0316 µM
  viability, T/C: 126%
Second compound 0.0316 µM, first compound 0.1 µM
  viability, T/C: 12.9%
Second compound 0.1 µM, first compound 0.000316 µM
  viability, T/C: 95.4%
Second compound 0.1 µM, first compound 0.001 µM
  viability, T/C: 106%
Second compound 0.1 µM, first compound 0.00316 µM
  viability, T/C: 115%
Second compound 0.1 µM, first compound 0.01 µM
  viability, T/C: 117%
Second compound 0.1 µM, first compound 0.0316 µM
  viability, T/C: 122%
Second compound 0.1 µM, first compound 0.1 µM
  viability, T/C: 11.6%
Second compound 0.316 µM, first compound 0.000316 µM
  viability, T/C: 107%
Second compound 0.316 µM, first compound 0.001 µM
  viability, T/C: 111%
Second compound 0.316 µM, first compound 0.00316 µM
  viability, T/C: 109%
Second compound 0.316 µM, first compound 0.01 µM
  viability, T/C: 119%
Second compound 0.316 µM, first compound 0.0316 µM
  viability, T/C: 120%
Second compound 0.316 µM, first compound 0.1 µM
  viability, T/C: 13.3%
Second compound 1 µM, first compound 0.000316 µM
  viability, T/C: 114%
Second compound 1 µM, first compound 0.001 µM
  viability, T/C: 110%
Second compound 1 µM, first compound 0.00316 µM
  viability, T/C: 112%
Second compound 1 µM, first compound 0.01 µM
  viability, T/C: 117%
Second compound 1 µM, first compound 0.0316 µM
  viability, T/C: 120%
Second compound 1 µM, first compound 0.1 µM
  viability, T/C: 9.93%

Reference: PubChem BioAssay AID2060884 (Molecular Pharmacology Branch, DTP, NCI, 2025)
